Data reported in ChEMBL document CHEMBL1128544, “2-[N'-(3-arylallylidene)hydrazino]adenosines showing A2a adenosine agonist properties and vasodilation activity” (J Med Chem, 1995).

Experiments:
[1] = biological target: T1, Adenosine receptor A1 (Rattus norvegicus, UniProt P25099); experiment: Activity at Adenosine A1 receptor of rat atria; format: functional
T1 sequence (P25099 whole entry): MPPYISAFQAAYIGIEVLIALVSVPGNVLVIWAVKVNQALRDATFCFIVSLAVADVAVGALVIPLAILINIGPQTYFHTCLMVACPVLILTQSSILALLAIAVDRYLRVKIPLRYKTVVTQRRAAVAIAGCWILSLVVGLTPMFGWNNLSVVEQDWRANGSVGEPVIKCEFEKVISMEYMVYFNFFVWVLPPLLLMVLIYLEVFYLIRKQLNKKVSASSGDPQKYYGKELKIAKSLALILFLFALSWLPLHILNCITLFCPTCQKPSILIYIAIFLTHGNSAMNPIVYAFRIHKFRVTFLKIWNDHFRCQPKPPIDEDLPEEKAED

[2] = biological target: T1, Adenosine receptor A1
Description: Displacement of [3H]CHA from Adenosine A1 receptor of rat brain

[3] = biological target: T2, Adenosine receptor A2a (Rattus norvegicus, UniProt P30543)
T2 sequence (P30543 whole entry): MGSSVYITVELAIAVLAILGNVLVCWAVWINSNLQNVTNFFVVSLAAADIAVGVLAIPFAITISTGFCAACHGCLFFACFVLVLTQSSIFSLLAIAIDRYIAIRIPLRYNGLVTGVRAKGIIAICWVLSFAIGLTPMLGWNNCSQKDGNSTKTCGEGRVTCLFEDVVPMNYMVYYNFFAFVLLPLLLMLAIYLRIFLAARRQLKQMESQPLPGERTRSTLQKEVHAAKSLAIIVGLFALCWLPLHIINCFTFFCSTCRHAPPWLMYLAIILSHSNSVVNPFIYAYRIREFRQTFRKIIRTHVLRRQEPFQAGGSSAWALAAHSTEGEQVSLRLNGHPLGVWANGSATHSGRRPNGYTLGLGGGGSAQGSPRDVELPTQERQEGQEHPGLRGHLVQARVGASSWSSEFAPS
Description: Functional activity at Adenosine A2A receptor as vasorelaxation of rat aorta

[4] = biological target: T2, Adenosine receptor A2a; remark: listed apart in the source

Row | Structure (SMILES) | EC50 [1] [nM] | Ki [2] [nM] | EC50 [3] [nM] | Ki [4] [nM]
1 | Nc1nc(N/N=C/C=C(c2ccccc2)c2ccccc2)nc2c1ncn2[C@@H]1O[C@H](CO)[C@@H](O)[C@H]1O | > 1860 | 64 | 704 | > 1000
2 | CN(C)c1ccc(/C=C/C=N/Nc2nc(N)c3ncn([C@@H]4O[C@H](CO)[C@@H](O)[C@H]4O)c3n2)cc1 | 866 | 101 | 728 | 170
3 | COc1ccccc1/C=C/C=N/Nc1nc(N)c2ncn([C@@H]3O[C@H](CO)[C@@H](O)[C@H]3O)c2n1 | 1970 | 264 | 529 | 384
4 | COc1ccc(/C=C/C=N/Nc2nc(N)c3ncn([C@@H]4O[C@H](CO)[C@@H](O)[C@H]4O)c3n2)cc1 | > 10000 | 425 | 677 | 59
5 | Nc1nc(N/N=C/C=C/c2ccccc2)nc2c1ncn2[C@@H]1O[C@H](CO)[C@@H](O)[C@H]1O | > 10000 | 1050 | 269 | 38
6 | Cc1ccc(/C=N/Nc2nc(N)c3ncn(C4O[C@H](CO)[C@@H](O)[C@H]4O)c3n2)cc1 (some centres undefined) | > 10000 | 1770 | 747 | 29

Next, values leading:

Row | EC50 [1] [nM] | Ki [2] [nM] | EC50 [3] [nM] | Ki [4] [nM] | Structure (SMILES)
7 | 4340 | 1670 | 800 | 83 | Nc1nc(N/N=C/C=C/c2ccco2)nc2c1ncn2[C@@H]1O[C@H](CO)[C@@H](O)[C@H]1O
8 | > 10000 | 524 | 482 | 23 | Nc1nc(N/N=C/C=C/c2ccc([N+](=O)[O-])cc2)nc2c1ncn2[C@@H]1O[C@H](CO)[C@@H](O)[C@H]1O
9 | > 10000 | 935 | 638 | 54 | Nc1nc(N/N=C/C=C/c2ccccc2[N+](=O)[O-])nc2c1ncn2[C@@H]1O[C@H](CO)[C@@H](O)[C@H]1O
10 | 4890 | 545 | 281 | 27 | COc1cc(/C=C/C=N/Nc2nc(N)c3ncn([C@@H]4O[C@H](CO)[C@@H](O)[C@H]4O)c3n2)ccc1O
11 | > 10000 | 1850 | 195 | 42 | Nc1nc(N/N=C/c2ccco2)nc2c1ncn2[C@@H]1O[C@H](CO)[C@@H](O)[C@H]1O
